ChEMBL document CHEMBL5137088 (J Med Chem, 2022)

Experiments:
in vitro [1] = conditions: chicken, chick embryo fibroblast cells
in vitro [2] = conditions: human, liver microsomes
Cytochrome P450 3A4 = Cytochrome P450 3A4 (Homo sapiens, UniProt P08684); format: ADME, microsomes, Liver, Microsome
Cytochrome P450 2C19 = Cytochrome P450 2C19 (Homo sapiens, UniProt P33261); format: ADME, microsomes, Liver, Microsome
Cytochrome P450 2C9 = Cytochrome P450 2C9 (Homo sapiens, UniProt P11712); format: ADME, microsomes, Liver, Microsome
Chain of Cytochrome P450 2C9 (P11712 whole entry): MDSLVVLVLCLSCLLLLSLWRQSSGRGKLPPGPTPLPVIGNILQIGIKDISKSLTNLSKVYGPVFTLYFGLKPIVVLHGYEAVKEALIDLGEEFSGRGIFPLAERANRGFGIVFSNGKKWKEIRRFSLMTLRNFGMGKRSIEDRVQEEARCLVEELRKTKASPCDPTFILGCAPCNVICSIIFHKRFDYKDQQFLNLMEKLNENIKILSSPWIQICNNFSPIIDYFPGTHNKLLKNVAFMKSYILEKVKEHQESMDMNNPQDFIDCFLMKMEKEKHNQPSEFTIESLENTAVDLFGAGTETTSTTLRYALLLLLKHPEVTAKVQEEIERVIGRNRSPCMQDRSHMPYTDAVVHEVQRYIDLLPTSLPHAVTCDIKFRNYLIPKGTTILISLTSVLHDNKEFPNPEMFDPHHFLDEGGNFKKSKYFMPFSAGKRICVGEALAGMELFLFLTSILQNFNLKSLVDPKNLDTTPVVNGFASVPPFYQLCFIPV

in vitro [3] = conditions: dog, MDCK cells
in vitro [4] = conditions: human, human liver (fraction not stated)
Cytochrome P450 2D6 = Cytochrome P450 2D6 (Homo sapiens, UniProt P10635)
Chain of Cytochrome P450 2D6 (P10635 whole entry): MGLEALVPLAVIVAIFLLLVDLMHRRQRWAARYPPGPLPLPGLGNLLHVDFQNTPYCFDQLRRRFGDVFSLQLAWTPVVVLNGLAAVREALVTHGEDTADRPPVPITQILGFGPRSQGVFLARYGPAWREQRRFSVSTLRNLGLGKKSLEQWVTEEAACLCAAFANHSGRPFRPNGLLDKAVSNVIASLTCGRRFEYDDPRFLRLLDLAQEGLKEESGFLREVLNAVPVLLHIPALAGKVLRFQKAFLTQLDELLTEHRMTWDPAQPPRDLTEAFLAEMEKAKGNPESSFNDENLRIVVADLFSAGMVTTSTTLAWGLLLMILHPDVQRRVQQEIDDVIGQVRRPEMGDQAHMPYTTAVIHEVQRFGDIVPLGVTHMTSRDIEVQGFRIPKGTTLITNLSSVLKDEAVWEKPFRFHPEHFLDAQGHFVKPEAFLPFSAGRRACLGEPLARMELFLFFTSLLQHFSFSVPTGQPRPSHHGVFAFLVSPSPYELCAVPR

in vitro [5] = conditions: human, human liver (fraction not stated); remark: listed apart in the source
Cytochrome P450 1A2 = biological target: T1, Cytochrome P450 1A2 (Homo sapiens, UniProt P05177)
T1 sequence (P05177 whole entry): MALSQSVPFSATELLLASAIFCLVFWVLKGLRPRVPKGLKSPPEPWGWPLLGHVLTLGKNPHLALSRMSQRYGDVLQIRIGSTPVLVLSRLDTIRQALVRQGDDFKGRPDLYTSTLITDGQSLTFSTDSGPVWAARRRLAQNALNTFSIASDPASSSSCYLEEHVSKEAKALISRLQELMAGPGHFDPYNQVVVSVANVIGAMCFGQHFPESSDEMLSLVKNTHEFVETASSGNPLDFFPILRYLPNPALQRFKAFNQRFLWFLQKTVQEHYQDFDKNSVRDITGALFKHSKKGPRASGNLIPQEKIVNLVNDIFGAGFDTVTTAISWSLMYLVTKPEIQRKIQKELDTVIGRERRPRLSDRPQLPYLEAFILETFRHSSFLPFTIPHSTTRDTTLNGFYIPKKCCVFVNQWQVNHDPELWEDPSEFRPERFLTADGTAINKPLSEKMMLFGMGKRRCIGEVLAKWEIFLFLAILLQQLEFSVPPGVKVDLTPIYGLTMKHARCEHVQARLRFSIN

[6] = Subacute toxicity in 12 hrs fasted Kunming mouse assessed as animal death at 50 mg/kg, iv administered once every two days for 2 weeks; format: organism-based; conditions: in vivo
[7] = Acute toxicity in 12 hrs fasted Kunming mouse assessed as clonic convulsion at 1000 mg/kg, po measured for 1 week; format: organism-based; conditions: in vivo, 168 h, time 1 weeks
[8] = Cmax in Sprague-Dawley rat at 20 mg/kg, po measured upto 12 hrs by LC-MS/MS analysis; format: ADME, organism-based; design: time < 12 hrs, dose 20 mg/kg, route po; conditions: in vivo
[9] = Cmax in Sprague-Dawley rat at 2 mg/kg, iv measured upto 12 hrs by LC-MS/MS analysis; format: ADME, organism-based; design: time < 12 hrs, dose 2 mg/kg, route iv; conditions: in vivo
[10] = Acute toxicity in 12 hrs fasted Kunming mouse assessed as lethargy at 1000 mg/kg, po measured for 1 week; format: organism-based; conditions: in vivo, 168 h, time 1 weeks
[11] = Half-life in Sprague-Dawley rat at 20 mg/kg, po measured upto 12 hrs by LC-MS/MS analysis; format: ADME, organism-based; conditions: in vivo
[12] = Acute toxicity in 12 hrs fasted Kunming mouse assessed as animal death at 1000 mg/kg, po measured for 1 week; format: organism-based; conditions: in vivo, 168 h, time 1 weeks
in vitro [13] = conditions: human, Caco-2
[14] = Subacute toxicity in 12 hrs fasted Kunming mouse assessed as side effect at 50 mg/kg, iv administered once every two days for 2 weeks; format: organism-based; conditions: in vivo
[15] = Clearance in Sprague-Dawley rat at 2 mg/kg, iv measured upto 12 hrs by LC-MS/MS analysis; format: ADME, organism-based; conditions: in vivo
[16] = Tmax in Sprague-Dawley rat at 20 mg/kg, po measured upto 12 hrs by LC-MS/MS analysis; format: ADME, organism-based; conditions: in vivo
[17] = Tmax in Sprague-Dawley rat at 2 mg/kg, iv measured upto 12 hrs by LC-MS/MS analysis; format: ADME, organism-based; conditions: in vivo
[18] = Volume of distribution at steady state in Sprague-Dawley rat at 2 mg/kg, iv measured upto 12 hrs by LC-MS/MS analysis; format: ADME, organism-based; conditions: in vivo, read-out: Vdss
[19] = Half-life in Sprague-Dawley rat at 2 mg/kg, iv measured upto 12 hrs by LC-MS/MS analysis; format: ADME, organism-based; conditions: in vivo
[20] = Subacute toxicity in 12 hrs fasted Kunming mouse assessed as increase in body weight at 50 mg/kg, po administered once every two days for 2 weeks relative to control; format: organism-based; conditions: in vivo
[21] = Subacute toxicity in 12 hrs fasted Kunming mouse assessed as poisoning symptom at 50 mg/kg, po administered once every two days for 2 weeks; format: organism-based; conditions: in vivo
[22] = Acute toxicity in 12 hrs fasted Kunming mouse assessed as ruffled fur at 1000 mg/kg, po measured for 1 week; format: organism-based; conditions: in vivo, 168 h, time 1 weeks
[23] = Oral bioavailability in Sprague-Dawley rat at 20 mg/kg measured upto 12 hrs by LC-MS/MS analysis; format: ADME, organism-based; conditions: in vivo
[24] = Subacute toxicity in 12 hrs fasted Kunming mouse assessed as animal death at 50 mg/kg, po administered once every two days for 2 weeks; format: organism-based; conditions: in vivo

Chain of Cytochrome P450 2C19 (P33261 whole entry): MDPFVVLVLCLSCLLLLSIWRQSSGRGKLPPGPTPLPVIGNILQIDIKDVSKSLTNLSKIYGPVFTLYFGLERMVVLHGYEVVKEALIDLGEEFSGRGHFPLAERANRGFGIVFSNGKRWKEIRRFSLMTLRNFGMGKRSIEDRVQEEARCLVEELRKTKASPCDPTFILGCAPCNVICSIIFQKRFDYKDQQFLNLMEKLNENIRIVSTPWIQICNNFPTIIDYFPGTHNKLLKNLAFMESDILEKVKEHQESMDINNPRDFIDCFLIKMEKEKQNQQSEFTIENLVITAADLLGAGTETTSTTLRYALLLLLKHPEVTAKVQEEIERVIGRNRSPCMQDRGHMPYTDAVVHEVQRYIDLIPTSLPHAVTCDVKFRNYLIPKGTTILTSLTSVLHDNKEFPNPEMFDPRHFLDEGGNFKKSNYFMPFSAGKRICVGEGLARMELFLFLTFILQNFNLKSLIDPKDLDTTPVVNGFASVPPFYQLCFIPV
Chain of Cytochrome P450 3A4 (P08684 whole entry): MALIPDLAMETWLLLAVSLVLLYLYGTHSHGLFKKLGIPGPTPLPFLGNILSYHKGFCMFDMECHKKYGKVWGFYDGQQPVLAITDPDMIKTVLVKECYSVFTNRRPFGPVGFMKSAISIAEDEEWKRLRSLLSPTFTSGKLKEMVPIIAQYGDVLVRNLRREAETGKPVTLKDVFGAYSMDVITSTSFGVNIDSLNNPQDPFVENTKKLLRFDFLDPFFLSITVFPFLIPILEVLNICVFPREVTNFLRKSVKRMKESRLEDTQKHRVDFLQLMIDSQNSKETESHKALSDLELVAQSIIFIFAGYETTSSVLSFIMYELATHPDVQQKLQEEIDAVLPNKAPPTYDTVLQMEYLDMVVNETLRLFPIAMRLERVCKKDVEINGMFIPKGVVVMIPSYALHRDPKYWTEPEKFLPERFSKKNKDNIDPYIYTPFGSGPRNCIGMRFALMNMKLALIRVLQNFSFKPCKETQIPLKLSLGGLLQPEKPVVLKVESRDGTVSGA

| SMILES | CC50 at 48 h (in vitro [1]) [µM] | half-life at 2 h (in vitro [2]) [min] | IC50 (Cytochrome P450 3A4) [µM] | IC50 (Cytochrome P450 2C19) [µM] | IC50 (Cytochrome P450 2C9) [µM] | CC50 at 48 h (in vitro [3]) [µM] | remaining at 60 min (in vitro [4]) [%] | IC50 (Cytochrome P450 2D6) [µM] | CLint scaled at 2 h (in vitro [5]) [mL/min/kg] | IC50 (Cytochrome P450 1A2) [µM] | also measured |
| --- | --- | --- | --- | --- | --- | --- | --- | --- | --- | --- | --- |
| CCC(CC)O[C@@H]1C=C(C(=O)O)C[C@H](NCc2ccc(-c3cccs3)cc2Cl)[C@H]1NC(C)=O | > 250 | > 145 | > 100 | 39.3 | 86.5 | > 250 | 76.1 | > 100 | < 8.6 | 12.7 |  |
| CCC(CC)O[C@@H]1C=C(C(=O)O)C[C@H](N)[C@H]1NC(C)=O [OSELTAMIVIR CARBOXYLATE] | > 250 | 72.4 |  |  |  | > 250 | 40.6 |  | 28 |  |  |
| CCC(CC)O[C@@H]1C=C(C(=O)O)C[C@H](NCc2ccc(-c3cccs3)cc2OC)[C@H]1NC(C)=O | > 250 | 120 | 87.6 | 30.3 | 41.6 | > 250 | 73.8 | > 100 | 10.4 | 20.7 | Activity [6]: Non-Toxic; Activity [7]: Non-Toxic; Cmax [8]: 511 ng/mL; Cmax [9]: 6870 ng/mL; Activity [10]: Non-Toxic; half-life [11]: 20.9 min; Activity [12]: Non-Toxic; Papp A→B at 2 h, 20 µM (in vitro [13]): 0.0191 ×10⁻⁶ cm/s; Activity [14]: Non-Toxic; clearance [15]: 17.7 mL/min/kg; Tmax [16]: 20 min; Tmax [17]: 4.98 min; Vd [18]: 0.191 L/kg; half-life [19]: 12.8 min; Activity [20]: Non-Toxic; Activity [21]: Non-Toxic; Activity [22]: Non-Toxic; bioavailability [23]: 1.5%; Activity [24]: Non-Toxic |
| CCC(CC)O[C@@H]1C=C(C(=O)O)C[C@H](NCc2ccc(-c3cccs3)c(Cl)c2)[C@H]1NC(C)=O | > 250 |  |  |  |  | > 250 |  |  |  |  |  |
| CCC(CC)O[C@@H]1C=C(C(=O)O)C[C@H](NCc2c(C)cc(-c3cccs3)cc2C)[C@H]1NC(C)=O | > 250 |  |  |  |  | > 250 |  |  |  |  |  |
| CCC(CC)O[C@@H]1C=C(C(=O)O)C[C@H](NCc2ccc(-c3ccsc3)cc2OC)[C@H]1NC(C)=O | > 250 | > 145 | > 100 | 47.8 | 47.3 | > 250 | 79.3 | > 100 | < 8.6 | 28.9 | Activity [6]: Non-Toxic; Activity [7]: Non-Toxic; Cmax [8]: 491 ng/mL; Cmax [9]: 7200 ng/mL; Activity [10]: Non-Toxic; half-life [11]: 50.2 min; Activity [12]: Non-Toxic; Papp A→B at 2 h, 20 µM (in vitro [13]): 0.0262 ×10⁻⁶ cm/s; Activity [14]: Non-Toxic; clearance [15]: 17.2 mL/min/kg; Tmax [16]: 30 min; Tmax [17]: 4.98 min; Vd [18]: 0.179 L/kg; half-life [19]: 12.8 min; Activity [20]: Non-Toxic; Activity [21]: Non-Toxic; Activity [22]: Non-Toxic; bioavailability [23]: 1.58%; Activity [24]: Non-Toxic |
| CCC(CC)O[C@@H]1C=C(C(=O)O)C[C@H](NCc2ccc(-c3ccsc3)cc2O)[C@H]1NC(C)=O | > 250 | 44.5 |  |  |  | > 250 | 59 |  | 17.2 |  |  |
| CCC(CC)O[C@@H]1C=C(C(=O)O)C[C@H](NCc2ccc(-c3cccs3)cc2C)[C@H]1NC(C)=O | > 250 | 123 | > 100 | 38.9 | 43.6 | > 250 | 71.7 | > 100 | 10.2 | 19.5 |  |
| C[C@]12CC[C@H]3[C@@H](CCC4=CC(=O)CC[C@@]43C)[C@@H]1CC[C@@H]2O [TESTOSTERONE] |  |  |  |  |  |  | 5.1 |  | 89.7 |  |  |
| CC(C)(C)NCC(O)COc1cccc2c1CC(O)C(O)C2 (stereo unspecified) [NADOLOL] |  |  |  |  |  |  |  |  |  |  | Papp A→B at 2 h, 20 µM (in vitro [13]): 0.0491 ×10⁻⁶ cm/s |
| CCC(CC)O[C@@H]1C=C(C(=O)O)C[C@H](NCc2ccc(-c3ccsc3)cc2Cl)[C@H]1NC(C)=O | > 250 | > 145 | 72.5 | 36.6 | 31.8 | > 250 | 78.1 | > 100 | < 8.6 | 14.3 |  |
| CCC(CC)O[C@@H]1C=C(C(=O)O)C[C@H](NCc2ccc(-c3ccsc3)cc2C)[C@H]1NC(C)=O | > 250 |  |  |  |  | > 250 |  |  |  |  |  |
| CCC(CC)O[C@@H]1C=C(C(=O)O)C[C@H](NCc2c(C)cc(-c3ccsc3)cc2C)[C@H]1NC(C)=O | > 250 |  |  |  |  | > 250 |  |  |  |  |  |
| O=C(O)Cc1ccccc1Nc1c(Cl)cccc1Cl [DICLOFENAC] |  | 5.5 |  |  |  |  |  |  | 225 |  |  |
